# Test results taken from US20260193294A1, “POLYPEPTIDE INHIBITOR, AND PREPARATION METHOD THEREFOR AND USE THEREOF” (SHANGHAI HANSOH BIOMEDICAL CO., LTD., priority 2022, published 2026).
# Legend:
# in vivo [1] = settings: male, Sprague-Dawley (SD), rat, iv, 1 mg/kg
# Procedure: SD rats were used as test animals to study the pharmacokinetic behavior of the compounds of the examples in the rats (plasma) after oral or IV administration.
# Preparation of intravenous drug: PBS
# The compounds of the examples were weighed and dissolved in this solution, vortexed, ultrasonicated for 5 min, and filtered through a 0.22 μm filter membrane to obtain colorless clear solutions with a concentration of 0.2 mg/mL.
# 3 SD rats/group, male were fasted overnight and then respectively administered IV at a dose of 1 mg/kg and a volume of 5 mL/kg.
# • Before administration and at 0.083 h, 0.25 h, 0.5 h, 1.0 h, 2.0 h, 4.0 h, 6.0 h, 8.0 h, and 24.0 h after administration (IV), 0.2 mL of blood was collected from the jugular vein, placed in an EDTA-2K test tube, and centrifuged at 6000 rpm for 6 min at 4° C. to separate plasma, which was stored at −20° C.; and the rats were fed 4 h after administration.
# 1) Acetonitrile (200 μL) was added to the plasma sample (50 μL) for precipitation, and the mixture was mixed and centrifuged at 4500 rpm for 15 min.
# (§11) 2) The treated supernatant solution was taken and subjected to LC/MS/MS to analyze the concentrations of the test compounds. LC/MS/MS analysis instrument: AB Sciex Triple Quad 6500+.
# • Liquid phase conditions: Shimadzu LC-30AD pump • Chromatographic column: HALO 90A PFP 2.7 μm 2.1×30 mm, mobile phase: liquid A: 5% acetonitrile aqueous solution (0.1% formic acid), and liquid B: an aqueous solution of 95% acetonitrile (0.1% formic acid) • Flow rate: 0.6 mL/min • Elution time: 0-2.0 min, the eluent was as follows:
# (§12) The main pharmacokinetic parameters were calculated using WinNonlin 8.1.
# in vivo [2] = settings: male, beagle, dog, iv, 0.2 mg/kg
# Procedure: Beagle dogs were used as test animals to study the pharmacokinetic behavior of the compounds of the examples in the rats (plasma) after IV administration.
# 3 beagle dogs/group, male, from Yizheng Anlimao Biotechnology Co., Ltd.
# The compounds of the examples were weighed and dissolved in this solution, vortexed, ultrasonicated for 5 min, and filtered through a 0.22 μm filter membrane to obtain colorless clear solutions with a concentration of 0.1 mg/mL.
# 3 beagle dogs/group, male were fasted overnight and then respectively administered IV at a dose of 0.2 mg/kg and a volume of 2 mL/kg.
# 1) Acetonitrile (200 μL) was added to the plasma sample (50 L) for precipitation, and the mixture was mixed and centrifuged at 4500 rpm for 15 min.
# as §11
# Premier Peptide CSH C18 130A 1.7 μm 2.1*100 mm Column, mobile phase: liquid A: 5% acetonitrile aqueous solution (0.1% formic acid), and liquid B: an aqueous solution of 95% acetonitrile (0.1% formic acid) • Flow rate: 0.6 mL/min • Elution time: 0-2.0 min, the eluent was as follows:
# as §12
# [3] = system: activation of STAT3 phosphorylation by hIL23 in DB cells; assay: Blocking the activation of STAT3 phosphorylation by hIL23 in DB cells (p-STAT3 ELISA); assay type: cell-based, Human; settings: DB cells stimulated by rhIL-23 0.5 nM, half an hour; read-out: pStat3 IC50
# Procedure: To determine the inhibitory activity of the compounds of the present disclosure on the activation of STAT3 phosphorylation by hIL23 in DB cells
# The compounds produced above were added to DB (ATCC Cat #CRL-2289) cells to inhibit the signal transduction of rhIL-23 cytokine. The screening of compounds was carried out by a multi-well plate (suitable for ELISA assay). Generally, in the presence of some of the above compounds of the present disclosure, 6.25×10^6 cells/ml of DB cells were stimulated by rhIL-23 (0.5 nM, R&D SYSTEMS) in RPMI medium (Invitrogen) containing 10% of FBS, and after half an hour, lysis was carried out on ice using 50 μL of 2×lysis buffer (CST). The content of p-STAT3 in the lysate was determined by PathScan Phospho-Stat3 (Tyr705) Sandwich ELISA Kit (CST Cat #7300C), so as to calculate the activity of the compounds of the present disclosure in blocking rhIL23 signal transduction in DB cells.
# The inhibition rate was calculated as follows: […]
# By using log (inhibitor) vs. response—Variable slope (four parameters) in Graphpad, the data of ELISA experiment results were subjected to non-linear regression fitting to fit a curve and obtain the IC50 value.
# in vitro = in vitro ADME; settings: 37° C.; for half-life at 0.5 μM: in vitro half-life, read-out: t1/2 (converted); for remaining at 4 h, 0.5 µM: read-out: Residual ratio % at 4 h
# Procedure: (§1) To study the stability of the compounds of the examples in the plasmas of mice, rats, dogs and humans.
# (§2) Preparation of plasma: Animal or human whole blood was collected, then put into a test tube containing an anticoagulant, and centrifuged at 3500 rpm for 10 min, and the upper pale yellow plasma was collected; • working solution of 10 μM test compound: a stock solution was prepared with DMSO, and the working solution was prepared with 100 mM phosphate buffer; • working solution of 10 μM positive control: • procaine: 2.36 mg of procaine was weighed and diluted into a 10 mM stock solution with 1 mL of DMSO. 10 μL of the 10 mM stock solution was pipetted into 1 mL of 100 mM phosphate buffer, such that the final concentration was 100 μM; and • enalapril: 4.93 mg of enalapril was weighed and diluted into a 10 mM stock solution with 1 mL of DMSO; and 10 μL of the 10 mM stock solution was pipetted into 1 mL of 100 mM phosphate buffer, such that the final concentration was 100 μM.
# (§3) In a 96-well plate, 285 μL of plasma and 15 μL of 10 μM compound (test compound, and positive control) were successively added and incubated at 37° C.
# (§4) 40 μL was taken at 0, 15, 30, 60, 90, and 120 min (sampling points could be fine-tuned), respectively, and 160 μL of an acetonitrile stop solution containing an internal standard was added.
# (§5) After centrifugation (3500 rpm, 10 min), 50 μL of the supernatant was taken, diluted by adding 50 μL of DDH2O, and then injected for LC-MS/MS.
# (§6) • Instrument: Shimadzu LC-20 AD • Chromatographic column: Phenomenex Gemiu® C18 (50*4.6 mm, 5 μm particle size) • Mobile phase: A: acetonitrile, B: 0.1% formic acid solution • Elution gradient: […]: 5% A→95% A, 2.0-2.1 min: […] • Flow rate: 0.8 mL/min • Run time: 5.0 min • Injection volume: 5 μL
# (§7) • Instrument: API4000 liquid chromatography mass spectrometer, AB, US • Ion source: electrospray ionization source (ESI) • Drying gas: N2, temperature 500° C. • Electrospray voltage: 5500V • Detection mode: positive ion detection • Scan mode: multi reaction monitoring (MRM) mode • Scan time: 0.1 s
# (§8) All calculations were carried out using Microsoft Excel. The peak area ratio was determined by an extracted ion chromatogram.
# (§9) The residual percentage of the compound at each time point was calculated by the following equation: Residual percentage at t hours (%)=peak area ratio at t hours/peak area ratio at 0 hour×100%, in which the peak area ratio at t hr was the peak area ratio of the […] at t min; and • the slope value k was determined by linear regression on the natural logarithm of the curve of the residual percentage of the parent drug versus the incubation time.
# (§10) In vitro half-life (in vitro t1/2) was determined by the slope value: […]
# [4] = Stability in plasma (human); assay type: in vitro ADME
# Procedure: as §1, §2, §3, §4, §5, §6, §7, §8, §9, §10
structure (smiles),measurement,setting,value
CC(=O)NCCCC[C@@H]1NC(=O)[C@H](Cc2c[nH]c3c(C)cccc23)NC(=O)[C@H]([C@@H](C)O)NC(=O)[C@H](CC(N)=O)NC(=O)[C@@H](NC(C)=O)C(C)(C)SSC(C)(C)[C@@H](C(=O)N[C@@H](Cc2ccc(OCCN)cc2)C(=O)N[C@@H](Cc2ccc3ccccc3c2)C(=O)NC2(C(=O)N[C@@H](CCC(=O)O)C(=O)N[C@@H](CC(N)=O)C(=O)N[C@@H](Cc3cccnc3)C(=O)N(C)CCNC(=O)CCOCCOCC[N+](C)(C)CCNC(=O)COCCOCCNC(=O)COCCOCCNC(=O)CC[C@H](NC(=O)CCCCCCCCCCCCCCC(=O)O)C(=O)O)CCC(F)(F)CC2)NC1=O [Example 1-16-1],half-life,in vivo [1],5 h
same,half-life,in vivo [2],53.8 h
same,IC50,[3],4.8 pM
same,half-life at 0.5 μM,in vitro; Dog plasma,3.15 days
same,"remaining at 4 h, 0.5 µM",in vitro; Dog plasma,90.5%
same,half-life at 0.5 μM,in vitro; Rat plasma,25.1 days
same,"remaining at 4 h, 0.5 µM",in vitro; Rat plasma,104%
same,half-life at 0.5 μM,"in vitro; mouse, Mice plasma",83.6 days
same,"remaining at 4 h, 0.5 µM","in vitro; mouse, Mice plasma",104%
same,"remaining at 4 h, 0.5 µM","[4]; Human plasma, 37° C., read-out: Residual ratio % at 4 h",94.8%
same,half-life at 0.5 μM,"[4]; human, plasma",41.3 h
